Data from patent US20230390247A1, “BIPHENYL PYRROLIDINE AND BIPHENYL DIHYDROIMIDAZOLE DERIVATIVES FOR INHIBITING ACTIVITY OF 5-HT7 SEROTONIN RECEPTOR, AND PHARMACEUTICAL COMPOSITION COMPRISING SAME AS ACTIVE INGREDIENT” (priority 2020, published 2023).

What was measured:
5-HT7R [1] = target: T1, 5-HT7R (Homo sapiens (Human), UniProt P34969); test: Tango assay (β-arrestin signaling system); assay type: cell-based; conditions: HTLA cells transfected with 5-HT7R-TCS-tTA construct
Description: Tango assay was conducted using HTLA cells in order to investigate the activity of the β-arrestin signaling system. Prior to transfection, the culture medium was replaced from DMEM containing 10% FBS, 100 U/mL penicillin, 100 μg/mL streptomycin, 2 μg/mL puromycin and 100 μg/mL hygromycin B to DMEM containing 10% dialyzed FBS, 100 U/mL penicillin and 100 μg/mL streptomycin. 4 hours later, transfection was conducted using 20 μg of a 5-HT7R-TCS-tTA construct (5-HT7R Tango DNA). The transfected cells were prepared on a white, flat, clear-bottom, 384-well plate (Greiner) (15,000 cells/well, 20 μL/well) using DMEM containing 10% dialyzed FBS, 100 U/mL penicillin and 100 μg/mL streptomycin. 6 hours later, after removing the culture medium, the cells were treated with 10 μL of the compound solution. After culturing for 22 hours and removing the culture medium, the cells were treated with 20 μL of a BrightGlo reagent (Promega) diluted in a 1×HBSS, […], pH 7.4 buffer. After measuring luminescence using a Tecan microplate reader (Spark), IC50 value was obtained using the Prism 8.0 program (GraphPad Software).

5-HT7R [2] = target: T1, 5-HT7R; test: cAMP assay (luminescence-based, GloSensor); assay type: cell-based; conditions: HEK293 cells transfected with human 5-HT7R and GloSensor-22F
Description: For luminescence-based cAMP assay, HEK293 cells were cultured on a 150-mm dish. Prior to transfection, the culture medium was replaced from DMEM containing 10% FBS, 100 U/mL penicillin and 100 μg/mL streptomycin to DMEM containing 10% dialyzed FBS, 100 U/mL penicillin and 100 μg/mL streptomycin. 4 hours later, transfection was conducted using 10 μg of a human 5-HT7R plasmid and 10 μg of a GloSensor-22F plasmid (Promega). The transfected cells were prepared on a white, flat, clear-bottom, 384-well plate (Greiner) (15,000 cells/well, 20 μL/well). 6 hours later, after removing the culture medium, the cells were treated with 20 μL of a 3% Glosensor cAMP reagent containing luciferin in a 1×HBSS, […], pH 7.4 buffer. In addition, the compound of each of the examples was prepared at different concentrations in an assay buffer containing 0.1% bovine serum albumin. 30 minutes later, 10 μL of the compound solution was treated to the cells. After measuring luminescence using a Tecan microplate reader (Spark), IC50 value was obtained using the Prism 8.0 program (GraphPad Software).

T1 sequence (P34969 whole entry): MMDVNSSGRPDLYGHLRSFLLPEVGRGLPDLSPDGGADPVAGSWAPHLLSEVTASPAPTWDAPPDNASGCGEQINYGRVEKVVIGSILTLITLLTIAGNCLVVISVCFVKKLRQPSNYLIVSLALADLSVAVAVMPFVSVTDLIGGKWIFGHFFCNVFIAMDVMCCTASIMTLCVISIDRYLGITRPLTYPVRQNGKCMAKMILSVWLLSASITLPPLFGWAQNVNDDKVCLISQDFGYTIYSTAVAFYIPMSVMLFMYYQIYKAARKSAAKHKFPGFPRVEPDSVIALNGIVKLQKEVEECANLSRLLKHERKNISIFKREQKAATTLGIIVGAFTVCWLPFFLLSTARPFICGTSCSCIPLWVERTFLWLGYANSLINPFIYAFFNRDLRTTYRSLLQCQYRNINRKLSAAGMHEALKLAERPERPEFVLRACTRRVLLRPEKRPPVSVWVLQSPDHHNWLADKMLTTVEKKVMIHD

| Structure (SMILES) | inhibition at 10 µM (5-HT7R [1]) | inhibition at 10 µM (5-HT7R [2]) | IC50 (5-HT7R [2]) | IC50 (5-HT7R [1]) |
| --- | --- | --- | --- | --- |
| Cc1ccccc1-c1cccc(C2=NCCN2)c1 [Compound 27, 2-(2′-methyl-[1,1′-biphenyl]-3-yl)-4,5-dihydro-1H-imidazole] | 23% | 55.3% |  |  |
| Clc1ccc(C2=NCCN2)cc1-c1ccccc1 [Compound 34, 2-(6-chloro-[1,1′-biphenyl]-3-yl)-4,5-dihydro-1H-imidazole] | 31.6% | 48.4% |  |  |
| Clc1ccc(CN2CCCC2)cc1-c1ccccc1 [Compound 12, 1-((6-chloro-[1,1′-biphenyl]-3-yl)methyl)pyrrolidine] | 26.1% | 80.8% | 4.89 µM |  |
| Cc1ccccc1-c1cccc(CN2CCCC2)c1 [Compound 5, 1-((2′-methyl-[1,1′-biphenyl]-3-yl)methyl)pyrrolidine] | 25% | 49.5% |  |  |
| COc1cccc(-c2cc(C3=NCCN3)ccc2Cl)c1 [Compound 42, 2-(6-chloro-3′-methoxy-[1,1′-biphenyl]-3-yl)-4,5-dihydro-1H-imidazole] | 23.4% | 49.8% |  |  |
| Clc1ccc(-c2cc(CN3CCCC3)ccc2Cl)cc1 [Compound 15, 1-((4′,6-dichloro-[1,1′-biphenyl]-3-yl)methyl)pyrrolidine] | 34.3% | 63.8% | 7.15 µM |  |
| Cc1ccccc1-c1cc(CN2CCCC2)ccc1Cl [Compound 16, 1-((6-chloro-2′-methyl-[1,1′-biphenyl]-3-yl)methyl)pyrrolidine] | 30.9% | 73.3% | 6.42 µM |  |
| COc1cccc(-c2cc(CN3CCCC3)ccc2Cl)c1 [Compound 20, 1-((6-chloro-3′methoxy-[1,1′-biphenyl]-3-yl)methyl)pyrrolidine] | 26% | 70.1% | 7.48 µM |  |
| Clc1ccc(-c2cccc(C3=NCCN3)c2)cc1 [Compound 26, 2-(4′-chloro-[1,1′-biphenyl]-3-yl)-4,5-dihydro-1H-imidazole] | 23.1% | 43% |  |  |
| COc1ccc(-c2cccc(CN3CCCC3)c2)cc1 [Compound 10, 1-((4′-methoxy-[1,1′-biphenyl]-3-yl)methyl)pyrrolidine] | 23.1% | 37.9% |  |  |
| Cc1ccc(-c2cc(C3=NCCN3)ccc2Cl)cc1 [Compound 40, 2-(6-chloro-4′-methyl-[1,1′-biphenyl]-3-yl)-4,5-dihydro-1H-imidazole] | 31.3% | 48.9% |  |  |
| Cc1cccc(-c2cc(CN3CCCC3)ccc2Cl)c1 [Compound 17, 1-((6-chloro-3′methyl-[1,1′-biphenyl]-3-yl)methyl)pyrrolidine] | 11.4% | 51.8% |  |  |
| Cc1ccc(-c2cc(CN3CCCC3)ccc2Cl)cc1 [Compound 18, 1-((6-chloro-4′methyl-[1,1′-biphenyl]-3-yl)methyl)pyrrolidine] | 21.5% | 73.4% | 8.2 µM |  |
| Cc1ccc(-c2cccc(C3=NCCN3)c2)cc1 [Compound 29, 2-(4′-methyl-[1,1′-biphenyl]-3-yl)-4,5-dihydro-1H-imidazole] | 17.2% | 35.2% |  |  |
| COc1ccccc1-c1cc(CN2CCCC2)ccc1Cl [Compound 19, 1-((6-chloro-2′-methoxy-[1,1′-biphenyl]-3-yl)methyl)pyrrolidine] | 19.7% | 51.8% |  |  |
| Clc1ccccc1-c1cccc(C2=NCCN2)c1 [Compound 24, 2-(2′-chloro-[1,1′-biphenyl]-3-yl)-4,5-dihydro-1H-imidazole] | 36% | 47.6% |  |  |

| Structure (SMILES) | inhibition at 10 µM (5-HT7R [1]) | inhibition at 10 µM (5-HT7R [2]) | IC50 (5-HT7R [2]) | IC50 (5-HT7R [1]) |
| --- | --- | --- | --- | --- |
| COc1cccc(OC)c1-c1cccc(CN2CCCC2)c1 [Compound 11, 1-((2′,6′-dimethoxy-[1,1′-biphenyl]-3-yl)methyl)pyrrolidine] | 5.1% | 32.8% |  |  |
| COc1ccc(-c2cc(CN3CCCC3)ccc2Cl)cc1 [Compound 21, 1-((6-chloro-4′-methoxy-[1,1′-biphenyl]-3-yl)methyl)pyrrolidine] | 18.6% | 44.7% |  |  |
| c1ccc(-c2cccc(CN3CCCC3)c2)cc1 [Compound 1, 1-([1,1′-biphenyl]-3-ylmethyl)pyrrolidine] | 17.5% | 42.1% |  | 22.9 µM |
| Cc1cccc(-c2cc(C3=NCCN3)ccc2Cl)c1 [Compound 39, 2-(6-chloro-3′-methyl-[1,1′-biphenyl]-3-yl)-4,5-dihydro-1H-imidazole] | 27% | 48.1% |  |  |
| COc1ccccc1-c1cc(C2=NCCN2)ccc1Cl [Compound 41, 2-(6-chloro-2′-methoxy-[1,1′-biphenyl]-3-yl)-4,5-dihydro-1H-imidazole] | 27.7% | 44.3% |  |  |
| Clc1cccc(-c2cc(CN3CCCC3)ccc2Cl)c1 [Compound 14, 1-((3′,6-dichloro-[1,1′-biphenyl]-3-yl)methyl)pyrrolidine] | 27.9% | 51.1% |  |  |
| Clc1ccccc1-c1cc(C2=NCCN2)ccc1Cl [Compound 35, 2-(2′,6-dichloro-[1,1′-biphenyl]-3-yl)-4,5-dihydro-1H-imidazole] | 42% | 53.8% |  | 20.4 µM |
| Cc1cccc(-c2cccc(C3=NCCN3)c2)c1 [Compound 28, 2-(3′-methyl-[1,1′-biphenyl]-3-yl)-4,5-dihydro-1H-imidazole] | 28.8% | 44.6% |  |  |
| Clc1ccc(-c2cccc(CN3CCCC3)c2)cc1 [Compound 4, 1-((4′-chloro-[1,1′-biphenyl]-3-yl)methyl)pyrrolidine] | 14.1% | 38.1% |  |  |
| COc1ccc(-c2cc(C3=NCCN3)ccc2Cl)cc1 [Compound 43, 2-(6-chloro-4′-methoxy-[1,1-biphenyl]-3-yl)-4,5-dihydro-1H-imidazole] | 21.5% | 36.8% |  |  |
| COc1ccccc1-c1c(Cl)ccc(CN2CCCC2)c1OC [Compound 22, 1-((6-chloro-2,6′-dimethoxy-[1,1′-biphenyl]-3-yl)methyl)pyrrolidine] | 3.3% | 42.7% |  |  |
| Cc1cccc(-c2cccc(CN3CCCC3)c2)c1 [Compound 6, 1-((3′-methyl-[1,1′-biphenyl]-3-yl)methyl)pyrrolidine] | 22% | 38.9% |  |  |
| COc1ccccc1-c1cccc(CN2CCCC2)c1 [Compound 8, 1-((2′-methoxy-[1,1′-biphenyl]-3-yl)methyl)pyrrolidine] | 18% | 57.1% |  |  |
| COc1cccc(-c2cccc(CN3CCCC3)c2)c1 [Compound 9, 1-((3′-methoxy-[1,1′-biphenyl]-3-yl)methyl)pyrrolidine] | 16.7% | 67.2% | 6.44 µM |  |
| Clc1cccc(-c2cccc(CN3CCCC3)c2)c1 [Compound 3, 1-((3′-chloro-[1,1′-biphenyl]-3-yl)methyl)pyrrolidine] | 33.2% | 85.9% | 4.88 µM |  |
| COc1cccc(OC)c1-c1cc(C2=NCCN2)ccc1Cl [Compound 44, 2-(6-chloro-2′,6′-dimethoxy-[1,1′-biphenyl]-3-yl)-4,5-dihydro-1H-imidazole] | 9.8% | 48.4% |  |  |
